Experimental data published in ChEMBL document CHEMBL2010666, “A resveratrol analog, phoyunbene B, induces G2/M cell cycle arrest and apoptosis in HepG2 liver cancer cells” (Bioorg Med Chem Lett, 2012).
Calls of active or inactive are those of the source. No cut-off for these calls is given here.

Legend:
[1] = test system: HepG2; experiment: Cytotoxicity against human HepG2 cells after 24 hrs by MTT assay; type: functional, cell-based; conditions: HepG2, 24 h
[2] = Cytotoxicity against human FHCC-98 cells after 24 hrs by MTT assay; type: functional, cell-based; conditions: FHCC-98, 24 h
[3] = Cytotoxicity against human QSG7701 cells after 24 hrs by MTT assay; type: cell-based; conditions: QSG7701, 24 h
[4] = test system: HepG2; experiment: Cell cycle arrest in human HepG2 cells assessed as accumulation at S phase at 30 uM after 32 hrs by FACS analysis (reference value: 29.5 %); type: functional
[5] = test system: HepG2; experiment: Cell cycle arrest in human HepG2 cells assessed as accumulation at G2/M phase at 30 uM; type: functional, cell-based; conditions: TDE = time-dependent effect
[6] = test system: HepG2; experiment: Cell cycle arrest in human HepG2 cells assessed as accumulation at S phase at 30 uM after 12 hrs by FACS analysis (reference value: 29.5 %); type: functional
[7] = test system: HepG2; experiment: Upregulation of cyclin B1 in human HepG2 cells at 30 uM after 12 to 32 hrs by Western blotting analysis; type: functional, cell-based
[8] = test system: HepG2; experiment: Upregulation of Cdc-2 in human HepG2 cells at 30 to 50 uM after 24 hrs by Western blotting analysis; type: functional, cell-based
[9] = test system: HepG2; experiment: Cell cycle arrest in human HepG2 cells assessed as accumulation at subG0 phase at 30 uM after 12 hrs by FACS analysis relative to control; type: functional
[10] = test system: HepG2; experiment: Cell cycle arrest in human HepG2 cells assessed as accumulation at G0/G1 phase at 30 uM after 12 hrs by FACS analysis (reference value: 53.7 %); type: functional
[11] = Induction of apoptosis in human QSG7701 cells assessed as increase in caspase 3 activation using Ac-DEVD-pNA as substrate at 30 uM after 12 hrs by colorimetry relative to control; type: cell-based; conditions: qsg7701, 12 h
[12] = test system: HepG2; experiment: Induction of apoptosis in human HepG2 cells assessed as Bax activation at 30 uM after 24 hrs by immunostaining; type: functional, cell-based
[13] = test system: HepG2; experiment: Upregulation of Cdc-2 in human HepG2 cells at 30 uM after 12 to 32 hrs by Western blotting analysis; type: functional, cell-based
[14] = test system: HepG2; experiment: Cell cycle arrest in human HepG2 cells assessed as accumulation at G2/M phase at 30 uM after 12 hrs by FACS analysis (reference value: 16.8 %); type: functional
[15] = test system: HepG2; experiment: Cell cycle arrest in human HepG2 cells assessed as accumulation at subG0 phase at 30 uM after 32 hrs by FACS analysis relative to control; type: functional
[16] = test system: HepG2; experiment: Induction of apoptosis in human HepG2 cells assessed as nuclear fragmentation at 30 uM after 24 hrs by immunostaining; type: functional, cell-based
[17] = Induction of apoptosis in human QSG7701 cells assessed as Bax activation at 30 uM after 24 hrs by immunostaining; type: cell-based; conditions: qsg7701, 24 h
[18] = test system: HepG2; experiment: Cell cycle arrest in human HepG2 cells assessed as accumulation at G0/G1 phase at 30 uM after 32 hrs by FACS analysis (reference value: 53.7 %); type: functional
[19] = test system: HepG2; experiment: Upregulation of cyclin B1 in human HepG2 cells at 30 to 50 uM after 24 hrs by Western blotting analysis; type: functional, cell-based
[20] = test system: HepG2; experiment: Induction of apoptosis in human HepG2 cells assessed as up-regulation of Bax at 30 uM by Western blotting analysis; type: functional, cell-based; conditions: TDE = time-dependent effect
[21] = test system: HepG2; experiment: Induction of apoptosis in human HepG2 cells assessed as increase in caspase 3 activation using Ac-DEVD-pNA as substrate at 30 uM after 12 hrs by colorimetry relative to control; type: functional
[22] = test system: HepG2; experiment: Induction of apoptosis in human HepG2 cells assessed as chromatin condensation at 30 uM after 24 hrs by immunostaining; type: functional, cell-based
[23] = test system: HepG2; experiment: Cell cycle arrest in human HepG2 cells assessed as accumulation at G0/G1 phase at 30 uM after 24 hrs by FACS analysis (reference value: 53.7 %); type: functional
[24] = test system: HepG2; experiment: Cell cycle arrest in human HepG2 cells assessed as accumulation at G2/M phase at 30 uM after 32 hrs by FACS analysis (reference value: 16.8 %); type: functional
[25] = test system: HepG2; experiment: Cell cycle arrest in human HepG2 cells assessed as accumulation at subG0 phase at 30 uM after 24 hrs by FACS analysis relative to control; type: functional
[26] = test system: FHCC-98; experiment: Inhibition of human FHCC-98 cell adhesion to matrigel-coated plates at 100 uM after 30 to 60 mins by crystal violet staining-based spectrophotometry; type: functional
[27] = test system: HepG2; experiment: Cell cycle arrest in human HepG2 cells assessed as accumulation at G2/M phase at 30 uM after 24 hrs by FACS analysis (reference value: 16.8 %); type: functional
[28] = test system: HepG2; experiment: Induction of apoptosis in human HepG2 cells assessed as PARP cleavage at 30 uM by Western blotting analysis; type: functional, cell-based; conditions: TDE = time-dependent effect
[29] = test system: HepG2; experiment: Induction of apoptosis in human HepG2 cells assessed as cell shrinkage at 30 uM after 24 hrs by phase-contrast microscopy; type: functional, cell-based
[30] = test system: FHCC-98; experiment: Inhibition of human FHCC-98 cell adhesion to matrigel-coated plates at 50 uM after 30 to 60 mins by crystal violet staining-based spectrophotometry; type: functional
[31] = test system: HepG2; experiment: Cell cycle arrest in human HepG2 cells assessed as accumulation at S phase at 30 uM after 24 hrs by FACS analysis (reference value: 29.5 %); type: functional
[32] = test system: HepG2; experiment: Induction of apoptosis in human HepG2 cells assessed as down-regulation of Bcl-2 at 30 uM by Western blotting analysis; type: functional, cell-based; conditions: TDE = time-dependent effect
[33] = test system: HepG2; experiment: Cell cycle arrest in human HepG2 cells assessed as accumulation at subG0 phase at 50 uM after 24 hrs by FACS analysis relative to control; type: functional
[34] = test system: HepG2; experiment: Cell cycle arrest in human HepG2 cells assessed as accumulation at G2/M phase at 50 uM after 24 hrs by FACS analysis (reference value: 16.8 %); type: functional
[35] = test system: HepG2; experiment: Cell cycle arrest in human HepG2 cells assessed as accumulation at S phase at 50 uM after 24 hrs by FACS analysis (reference value: 29.5 %); type: functional
[36] = test system: HepG2; experiment: Cell cycle arrest in human HepG2 cells assessed as accumulation at G0/G1 phase at 50 uM after 24 hrs by FACS analysis (reference value: 53.7 %); type: functional
[37] = test system: HepG2; experiment: Induction of apoptosis in human HepG2 cells assessed as increase in caspase 3 activation using Ac-DEVD-pNA as substrate at 10 uM after 12 hrs by colorimetry relative to control; type: functional

Q: With `Oc1cccc(/C=C/c2cc(O)cc(O)c2)c1` as the compound, how does the IC50 [1] read?
A: 95.8 µM

Q: What about the IC50 [2] of the same compound?
A: > 100 µM

Q: What about the IC50 [3] of the same compound?
A: > 100 µM

Q: Which results are given for `COc1cc(O)cc(/C=C/c2ccc(O)c(OC)c2OC)c1` [PHOYUNBENE B]?
A: Activity [4]: 7.9%; Activity [5]: tde; Activity [6]: 20.5%; Activity [7]: Active; Activity [8]: inactive; Activity [9]: 0%; Activity [10]: 38.2%; Activity [11]: Non-toxic; Activity [12]: Active; Activity [13]: inactive; IC50 [1]: 37.1 µM; Activity [14]: 41.3%; IC50 [2]: 45.8 µM; IC50 [3]: > 100 µM; Activity [15]: 12.3%; Activity [16]: Active; Activity [17]: Non-toxic; Activity [18]: 4.6%; Activity [19]: Active; Activity [20]: tde; fold change (FC) [21]: 5; Activity [22]: Active; Activity [23]: 17.7%; Activity [24]: 75.2%; Activity [25]: 6.5%; inhibition [26]: Active; Activity [27]: 62.8%; Activity [28]: tde; Activity [29]: Active; inhibition [30]: Active; Activity [31]: 13%; Activity [32]: tde

Q: For `COc1cc(O)cc(/C=C/c2cccc(OC)c2OC)c1` [PHOYUNBENE D], which IC50 [1] is on record?
A: > 100 µM

Q: What about the IC50 [2] of the same compound?
A: 80.5 µM

Q: And the IC50 [3]?
A: > 100 µM

Q: Which results are given for `Oc1ccc(/C=C/c2cc(O)cc(O)c2)cc1` [RESVERATROL]?
A: Activity [33]: 0%; Activity [34]: 11.7%; IC50 [1]: 80.3 µM; IC50 [2]: 95.2 µM; IC50 [3]: > 100 µM; Activity [35]: 56.3%; inhibition [26]: Active; Activity [36]: 31.9%; inhibition [30]: Active

Q: Which IC50 [1] does the source give for `COc1cc(O)cc(/C=C/c2cccc(O)c2O)c1` [PHOYUNBENE F] here?
A: > 100 µM

Q: What about the IC50 [2] of the same compound?
A: > 100 µM

Q: What about the IC50 [3] of the same compound?
A: > 100 µM

Q: For `CC[C@@]1(O)C(=O)OCc2c1cc1n(c2=O)Cc2cc3ccccc3nc2-1` [CAMPTOTHECIN], which IC50 [1] is on record?
A: 6.4 µM

Q: What about the IC50 [2] of the same compound?
A: 15.2 µM

Q: What about the IC50 [3] of the same compound?
A: 18.3 µM

Q: And the “fold change (FC)” value [37]?
A: 4

Q: Which results are given for `COc1c(O)cccc1/C=C/c1cc(O)cc(O)c1` [PHOYUNBENE E]?
A: IC50 [1]: > 100 µM; IC50 [2]: > 100 µM; IC50 [3]: > 100 µM

Q: With `COc1cc(O)cc(/C=C/c2cccc(O)c2OC)c1` [PHOYUNBENE C] as the compound, how does the IC50 [1] read?
A: 90.8 µM

Q: What about the IC50 [2] of the same compound?
A: > 100 µM

Q: What about the IC50 [3] of the same compound?
A: > 100 µM

Q: What does the source list for `COc1cc(O)cc(/C=C/c2ccc(OC)c(O)c2OC)c1` [PHOYUNBENE A]?
A: IC50 [1]: > 100 µM; IC50 [2]: > 100 µM; IC50 [3]: > 100 µM
